Measured values reported in patent publication US9891237B2, “Fluorescent sensor for metal cation detection based on 2-(2′-hydroxyphenyl)benzazole containing a Schiff base moiety” (priority 2013, dated 2018).

Key:
[1] = Absorption, emission and Stokes' shift of ligands and their zinc complexes (Table 1); format: physicochemical
[2] = Fluorescence of free ligand 4; format: physicochemical
Experimental: (§1) FIG. 3 provides a fluorescence spectra of 4 (10 μM) in EtOH:HEPES=1:1 (pH=7.2) upon addition of 5 equiv. of different ions.
(§2) The ligand 4 gave a weak fluorescence peak at 580 nm (φfl=0.05). […] NIR emission was relatively stronger in pure methanol. The green fluorescence turn-on could be easily observed, making it also useful for naked eye detection (FIG. 3). […] In other words, the probe molecule 4 is silent to Cd^2+ cation, as its binding could not remove the phenolic proton (a necessary step to simultaneously shift the emission and turn on the ESIPT for NIR emission).
(§3) In order to clarify the interaction of 4 with different metal ions, the UV-vis absorption and fluorescence spectra of 4 (10 μM in EtOH:H2O=1:1 solutions) were studied by addition of 5 equiv. of different cations.

[3] = UV-vis absorption and fluorescence response/titration of 4 with Zn^2+ in EtOH/HEPES; format: binding
Experimental: (§4) FIG. 2 provides an absorbance spectra of 4 (10 μM) in EtOH/HEPES (10 mM) (1:1) (pH=7.2), upon addition of 5 equiv. of different cations.
as §1
(§5) The binding property of 4 to Zn^2+ cation was examined in EtOH/HEPES (FIG. 2). As the Zn^2+ cation was added, a new absorption band was generated at about 450 nm.
as §2, §3
A It is important to note that, while the ligand 4 can bind Zn^2+ cation well, the same is not true for the Cd^2+ cation, although the atomic configuration ([Ar]3d^10 for Zn^2+ and [Kr]4d^10 for Cd^2+). On the basis of quick disappearance of the —OH signal at ˜10 ppm (^1H NMR in FIG. 5), the initial step might involve a weak interaction of metal cation with the imine —CH═N—, forming intermediate 5. […] The Zn^2+ cation in 6a could further interact with the adjacent hydroxyl group to form the fused 6-membered ring “B”, which requires twisting of the “HBO” fragment from the Schiff base fragment (ring A).

[4] = UV-vis absorption and fluorescence response of 4 to Cd^2+; format: binding
Experimental: as §4, §1, §5, §2, §3
When Cd^2+ was used, the interaction pattern appeared to be quite different. […] Therefore, the equilibrium between 6b and 8 might occur without forming the fused rings A-B in 4-Cd. […]

[5] = UV-vis absorption and fluorescence response of 4 to Al^3+
Experimental: as §4, §1, §5, §2, §3

[6] = UV-vis absorption and fluorescence response of 4 to 5 equiv. of different cations
Experimental: as §4, §1, §2, §3

[7] = system: human cancer cells (HepG2) and human umbilical vein endothelial cells (HUVECs); assay: Confocal fluorescence imaging of intracellular Zn^2+ with sensor 4; format: cell-based
Experimental: FIG. 8A provides confocal fluorescence images of Human mesenchymal stem cells (hMSCs) excited with a 488 laser. The image were collected at bright field on an Olympus FV1000-Filter Confocal Microscopy. a→b: the cells were incubated with dye 4 for 60 mins at 37° C.
FIG. 8B provides confocal fluorescence images of Human mesenchymal stem cells (hMSCs) excited with a 488 laser. The images were collected at green channel (535-565 nm) on an Olympus FV1000-Filter Confocal Microscopy. a→b: the cells were incubated with dye 4 for 60 mins at 37° C.
(§6) FIG. 8C provides confocal fluorescence images of Human mesenchymal stem cells (hMSCs) excited with a 488 laser. The images were collected at bright field on an Olympus FV1000-Filter Confocal Microscopy. c→d: the cells were first treated with Zn(OAc)2 (30 μM) for 30 mins and further exposed to dye 4 (10 μM) for another 60 mins at 37° C.
as §6, with “8D” for “8C”, “green channel (535-565 nm)” for “at bright field”, “Microscopy.” for “Microscopy. c→d:”
To illustrate the potential biological application, sensor 4 was applied to visualize intracellular Zn^2+ in both human cancer cells (HepG2) and human umbilical vein endothelial cells (HUVECs) (See FIGS. 8A-D). FIGS. 8A-D show confocal fluorescence images of Human mesenchymal stem cells (hMSCs) excited with a 488 laser. The images were collected at bright field (a and c) and green channel (535-565 nm; b and d) on an Olympus FV1000-Filter Confocal Microscopy. a→b: the cells were incubated with dye 4 for 60 mins at 37° C.; c→d: the cells were first treated with Zn(OAc)2 (30 μM) for 30 mins and further exposed to dye 4 (10 μM) for another 60 mins at 37° C. For this purpose, cells were first incubated with 30 μM of Zn^2+ for 30 mins and then further treated with 10 μM dye 4 for another […]. […]

[8] = Absorption and fluorescence of free sensor 1 in aqueous medium; format: physicochemical
Experimental: Sensor 1 was synthesized by refluxing the corresponding dialdehyde (as described in W. Chen, Y. Xing, and Y. Pang, Org. Lett., 2011, 13, 1262) with hydrazinopyridine in EtOH for 2 hours, and was collected as yellow solid in >90% yield.
(§7) (Cr: ΦF=0.63; Al: ΦF=0.31).

[9] = UV-vis and fluorescence response of sensor 1 to Al^3+ in H2O:EtOH=8:2
From the text: as §7

[10] = Fluorescence response of sensor 1 to Fe^3+ in H2O:EtOH=8:2
From the text: as §7

[11] = UV-vis and fluorescence response of sensor 1 to mono- and divalent metal ions
From the text: as §7

[12] = system: human mesenchymal stem cells (hMSCs); assay: Confocal fluorescence imaging of intracellular Cr^3+ and Al^3+ with sensor 1; format: cell-based
From the text: FIG. 15A provides a confocal fluorescence images of Human mesenchymal stem cells (hMSCs) excited with a Diode laser (405 nm) on an Olympus FV-1000 laser scanning microscope. The images were collected at bright field. […]
FIG. 15B provides a confocal fluorescence images of Human mesenchymal stem cells (hMSCs) excited with a Diode laser (405 nm) on an Olympus FV-1000 laser scanning microscope. The images were collected at bright field. […] 15E was collected from 535-565 nm.
FIG. 15C provides a confocal fluorescence images of Human mesenchymal stem cells (hMSCs) excited with a Diode laser (405 nm) on an Olympus FV-1000 laser scanning microscope. The images were collected at bright field. […] 15F was collected from 505-525 nm
FIG. 15D provides a confocal fluorescence images of Human mesenchymal stem cells (hMSCs) excited with a Diode laser (405 nm) on an Olympus FV-1000 laser scanning microscope. The images were collected fluorescent channels. […]
FIG. 15E provides a confocal fluorescence images of Human mesenchymal stem cells (hMSCs) excited with a Diode laser (405 nm) on an Olympus FV-1000 laser scanning microscope. The images were collected fluorescent channels. […] 15E was collected from 535-565 nm.
FIG. 15F provides a confocal fluorescence images of Human mesenchymal stem cells (hMSCs) excited with a Diode laser (405 nm) on an Olympus FV-1000 laser scanning microscope. The images were collected fluorescent channels. […] 15F was collected from 505-525 nm
The potential application of 1 for both Cr^3+ and Al^3+ in biological samples was examined by using confocal fluorescence microscopy. […] Bright-field measurements confirmed that the cells, after being treated with Cr^3+/Al^3+ and 1, were viable throughout the imaging experiments. […] Response to Cr^3+ and Al^3+ ions with distinctly different colors (yellow-green and cyan, respectively) from the cell samples raised the prospect that the Cr^3+ and Al^3+ ions could be simultaneously determined and distinguished

[13] = 10 μM in EtOH:H2O=1:1, 5 equiv.

In the case of `Cc1ccc2nc(-c3cc(O)c(C=NNc4ccccn4)cc3O)oc2c1` [Sensor 4], the “Absorption λmax (nm)” value [1] is reported as 413 nm, the “Stokes' shift” value [1] is reported as 6971 cm⁻¹ and the “Emission λem (nm)” value ([1]; first or only emission peak) is reported as 580 nm. For the same compound, the “Stokes' shift” value ([1]; value in brackets) was 167 nm, the “fluorescence peak of the ligand” value [2] was 580 nm and the φfl [2] was 0.05. For the same compound, the “φfl upon addition of Zn^2+” value ([3]; 1:1 EtOH/H2O) was 0.26, the “new absorption band upon Zn^2+ addition” value ([3]; EtOH/HEPES) was “about 450 nm” and the “association constant Ka” value ([3]; from the fluorescence titration data) was 228000 M⁻¹. For the same compound, the “Stokes' shift of NIR emission” value ([3]; upon Zn^2+ binding) was ~260 nm, the “NIR emission peak upon addition of Zn^2+ (keto tautomer)” value ([3]; upon addition of Zn^2+) was ~720 nm and the “emission peak upon addition of Zn^2+ (enol tautomer)” value ([3]; upon addition of Zn^2+) was 545 nm. The “selectivity toward Zn^2+ binding” value ([3]; versus other cations) was “excellent selectivity”, the “fluorescence response to Cd^2+ cation” value [4, 13] was “no observable fluorescence response” and the “binding to Cd^2+ cation” value ([4]; absorption, EtOH/HEPES) was “weak binding”. For the same compound, the “enhanced emission induced by Al^3+” value [5] was ~610 nm, the “bathochromic shift of absorption on addition of other cations such as Al^3+” value ([5]; EtOH/HEPES) was “did not cause a notable bathochromic shift” and the “dual emission on addition of other cations (K^+, Na^+, Ag^+, Cd^2+, Ca^2+, Mg^2+, Pb^2+, Ni^2+, Hg^2+, Co^2+, Cu^2+, Cr^3+, Fe^3+, Al^3+)” value [6] was “did not induce the dual emissions at 545 and 720 nm”. For the same compound, the “fluorescence effect of Ag^+, Co^2+, Ni^2+ and Cu^2+” value [6, 13] was “quenched the fluorescence”, the “fluorescence effect of Cr^3+, Fe^3+ and Al^3+” value [6, 13] was “slightly increased the fluorescence” and the “red shift of fluorescence signal on addition of Cr^3+, Fe^3+ and Al^3+” value [6, 13] was 25-37 nm. For the same compound, the “response to K^+, Na^+, Ca^2+ ions” value [6, 13] was “no response”, the cell permeability [7] was “permeable to cells” and the “fluorescence in cells treated with Zn^2+ and the dye” value ([7]; 30 μM Zn^2+ 30 mins, then 10 μM dye) was “strong fluorescence”. For the same compound, the “fluorescence in cells treated with only the dye” value ([7]; dye only, green channel 535-565 nm, 488 laser) was “very weak fluorescence”.

With `Oc1c(C=NNc2ccccn2)cc(C=NNc2ccccn2)cc1-c1nc2ccccc2o1` [Sensor 1] the “absorption major peak (π-π*)” value [8] was 315 nm, the “absorption minor peak (n-π*)” value [8] was 432 nm and the “Stokes' shift” value ([8]; free sensor, H2O:EtOH=8:2) was 180 nm. For the same compound, the ΦF ([8]; free sensor, H2O:EtOH=8:2) was 0.1, the “Stokes' shift of the Al^3+ complex emission” value [9] was 170 nm and the “stability of fluorescence with Al^3+ over time” value [9] was “quite stable”. The “fluorescence response upon addition of Al^3+” value ([9]; H2O:EtOH=8:2) was “immediate fluorescence turn-on”, the “ΦF with Al^3+” value ([9]; H2O:EtOH=8:2) was 0.31 and the “emission λem with Al^3+” value ([9]; H2O:EtOH=8:2, blue-green) was ~527 nm. The “fluorescence response upon addition of Fe^3+” value [10] was “immediate fluorescence turn-on”, the “time to quenching of fluorescence with Fe^3+” value [10] was ≤ 5 min and the “fluorescence effect of Mn^2+, Ni^2+, Pb^2+, Ba^2+, Ag^+, Hg^2+” value ([11]; 10 equiv.) was “slight quenching”. The “response to Ca^2+, Mg^2+, Na^+ and K^+” value ([11]; 10 equiv.) was “negligible response”, the “change in UV-vis spectra on addition of M^+ and M^2+ cations” value ([11]; 10 equiv., except Cu^2+) was “almost no change” and the “fluorescence effect of Cu^2+” value ([11]; 10 equivalents) was “quenched the fluorescence”. For the same compound, the “fluorescence change on addition of divalent metal ions” value ([11]; 10 equivalents, H2O:EtOH=8:2, except Cu^2+) was “negligible fluorescence change”, the cell permeability [12] was “permeable to cells” and the “intracellular fluorescence, control without added metal ions” value ([12]; 10 μM dye) was “negligible intracellular fluorescence”. For the same compound, the “cell viability during imaging (bright-field)” value ([12]; after treatment with Cr^3+/Al^3+ and 1) was “viable”, the “intracellular fluorescence after Al^3+” value ([12]; then 10 μM sensor 30 minutes) was “significant increase in the fluorescence” and the “intracellular fluorescence after Cr^3+” value ([12]; then 10 μM sensor 30 minutes) was “significant increase in the fluorescence”. For the same compound, the “Stokes' shift of the Cr^3+ complex emission” value was 195 nm, the “new π-π* absorption band upon addition of Cr^3+” value was “about 358 nm” and the “selectivity as chemosensor for Cr^3+” value (10 equiv. other metal ions, then 10 equiv. Cr^3+) was “highly selective”. For the same compound, the “fluorescence response upon addition of Cr^3+” value (H2O:EtOH=8:2) was “immediate fluorescence turn-on”, the “ΦF with Cr^3+” value (H2O:EtOH=8:2) was 0.63 and the “emission λem with Cr^3+” value (H2O:EtOH=8:2, yellow green) was ~556 nm.
